We go through six molecules from US20110200655A1, “Systems and methods that kill infectious agents (bacteria) without the use of a systemic anti-biotic” (priority 2010, published 2011).

The target of one assay is MMPs. The note with it: compared with Ilomastat; cited from earlier work.
The next assay has as its system E. coli bacteria. As to the kind of experiment: Zone of inhibition of extract solutions on agar culture plate. The note with it: 20 microliter drop. It is filed as cell-based, Escherichia coli. How it is done:
In this example, a microbicidal utility substrate is made of a nonwoven rayon gauze material graft polymerized with diallyldimethylammonium chloride (DADAMC), and containing approximately 10 weight % poly(DADMAC)), and SofWick, a commercially available rayon gauze material manufactured by Johnson & Johnson were used as substrates. The material was prepared via modification of the SofWick substrate. Each substrate measured approximately 40 square inches. Substrates were dried at 60° C. for 30 minutes and then weighed. Both samples were trimmed to weigh exactly 1.00 grams each. A 0.5 weight % solution of Cefazolin Sodium USP (Geneva Pharmaceuticals) was prepared. Each sample was placed in a 50 mL screw-cap polypropylene centrifuge tube, along with 30 mL of the Cefazolin solution and the tubes were placed on a rotating agitator for 3 hours. The samples were removed from the solutions, then squeezed to remove excess solution, dried at 60° C. for 2 hours, then weighed. The sample weighed 1.05 grams, whereas the SofWick sample weighed 1.00 grams. […] The extraction liquid was saved for analysis.
The dried samples were placed in separate 50 mL centrifuge tubes containing 25 mL of distilled water, then placed in the rotating agitator overnight at room temperature. The samples were then removed, squeezed to remove excess solution, dried at 60° C. for 2 hours, then weighed. The sample weighed 1.03 grams, and the SofWick sample weighed 0.98 grams. […] The extraction liquid was saved for analysis This extraction procedure was repeated […] additional times to yield two series of six extraction liquids.
The extract solutions were tested for antimicrobial activity by placing single 20 microliter drops of the solutions at marked locations on an agar culture plate spread with ~3×10^3 CFU (continuous lawn) of E. coli bacteria. Plates were incubated overnight at 37° C., and the diameter of the “zone of inhibition”, or “ZOI” was measured. The size of this zone corresponds to the antibacterial activity of the extract solutions. […]

The subject of a further assay is Staph. aureus. The assay is described as above. It is filed as cell-based, Staphylococcus aureus. How it is done:
The extract solutions were tested for antimicrobial activity by placing single 20 microliter drops of the solutions at marked locations on an agar culture plate spread with ~3×10^3 CFU (continuous lawn) of E. coli bacteria. Plates were incubated overnight at 37° C., and the diameter of the “zone of inhibition”, or “ZOI” was measured. The size of this zone corresponds to the antibacterial activity of the extract solutions.
The samples were soaked in 25 mL of 5% PG solution for 2 hours, then squeezed to remove excess solution, dried and weighed. Samples were then washed with 25 mL of distilled water for one hour, then dried and weighed. These wash solutions (G-1 and H-1) were saved for analysis. The samples were then subjected to two additional washings with 25 mL distilled water, without drying in between washings (G-2, G-3, and H-2, H-3). Samples were then dried and weighed.
A repeat of the method of Example 15 was used, except that the extraction solvent used was phosphate buffered saline (“PBS”, pH=7.4, Fisher Scientific), and samples were not dried and weighed between extractions. Samples of a microbicidal utility substrate (Sample I, initial weight=1.024 g) and SofWick (Sample J, initial weight=1.011 g) were each soaked in 20 Ml of ~4% penicillin G solution overnight, and excess solution was removed by squeezing. Samples were then washed with 25 mL distilled water for one hour with agitation, squeezed to remove excess liquid, and then subjected to five sequential extractions using 25 mL of PBS for one hour at room temperature. Samples were squeezed to remove excess solution between extractions. Extracts were tested for antibacterial activity against S. aureus according to the procedure outlined above.
The method of Example 15 was used, except that sodium pyrithione (“SP”, Acros Chemical) was used instead of penicillin. One gram samples of the microbicidal utility substrate (sample K), and untreated SofWick (sample L) were each soaked overnight in 25 ml of 0.5% SP solution. Samples were removed and squeezed to remove excess liquid. Samples were then washed in 25 mL of distilled water for one hour with agitation, then squeezed to remove excess liquid. Each sample was subjected to four sequential extractions using 25 mL of distilled water for one hour at room temperature with agitation. Samples were squeezed to remove excess solution between extraction cycles. The extracts were tested for antibacterial activity against S. aureus using the procedure described above.

Another assay concerns microorganisms. The note with it: tobramycin 2.5 mg/l, 15-400 µA/cm^2 during 8 h; cited from earlier work.

As for `CC(C)C[C@H](CC(=O)NO)C(=O)N[C@@H](Cc1c[nH]c2ccccc12)C(=O)O` [C-terminal carboxylic form of Ilomastat], on MMPs, the “Ki values for MMPs” value is reported as “lower”.

Consider `Cc1nnc(SCC2=C(C(=O)O)N3C(=O)[C@@H](NC(=O)Cn4cnnn4)[C@H]3SC2)s1` [Cefazolin, Cefazolin Sodium USP], for which the ZOI diameter stood at 0 mm with E. coli bacteria (Cefazolin 0.01% control solution), 18 mm in the assay on E. coli bacteria (Cefazolin 0.1% control solution) and 40 mm in the assay on E. coli bacteria (Cefazolin 1% control solution).

For `CNC(=O)C(Cc1c[nH]c2ccccc12)NC(=O)C(CC(=O)O)CC(C)C` (centres unmarked) [GM1489], at MMPs, the “Ki values for MMPs” value is “almost as good as Ilomastat”.

For the molecule `CC1(C)S[C@@H]2[C@H](NC(=O)Cc3ccccc3)C(=O)N2[C@H]1C(=O)[O-].[K+]` [Penicillin G, Penicillin G Potassium], the ZOI diameter turned out to be 0 mm in the assay with Staph. aureus (Penicillin G 0.01% control solution), 44 mm in the assay on Staph. aureus (Penicillin G 0.1% control solution) and 56 mm in the assay with Staph. aureus (Penicillin G 1.0% control solution).

`[Na+].[O-][n+]1ccccc1[S-]` [SP, sodium pyrithione]: the “ZIO of SP control solution” value is given as 12 mm with Staph. aureus (0.01% SP) and 26 am in the assay with Staph. aureus (0.1% SP).

With `NC[C@H]1O[C@H](O[C@H]2[C@H](O)[C@@H](O[C@H]3O[C@H](CO)[C@@H](O)[C@H](N)[C@H]3O)[C@H](N)C[C@@H]2N)[C@H](N)C[C@@H]1O` [tobramycin], the “killing of microorganisms with current and antibiotic” value with microorganisms is listed as “total killing of microorganisms”.
